Experimental findings from article PMC8317135 (Journal of medicinal chemistry, 2021) are described below.

The data set is described as follows: Aqueous solubility.

As for `O=C(O)c1cc(-c2ccc(NC(=O)C3CCNCC3)cc2)cc(-n2cc(-c3ccc(C(F)(F)F)cc3)nn2)c1` [Compound 11, 4′-(Piperidine-4-carboxamido)-5-(4-(4-(trifluoromethyl)phenyl)-1H-1,2,3-triazol-1-yl)-[1,1′-biphenyl]-3-carboxylic Acid], the “solubility in aqueous medium in words” value is listed as “poorly soluble in aqueous medium”.
